# Patent US11844791B2, “Use of antagonists and/or inverse agonists of CB1 receptors for preparing medicaments for treating fatigue post-viral fatigue syndrome” (FUNDACION HOSPITAL NACIONAL DE PARAPÉJICOS, priority 2020, dated 2023)
# Experiments:
# [1] = system: human motor system (motor cortex and spinal motor neurons); assay: Transcranial magnetic stimulation: MEP amplitude in first dorsal interosseous muscle before and 24 hours after a single Rimonabant dose; format: in vivo; settings: healthy subjects, 24 hours after single dose Rimonabant 20 mg; MEP at 120% RMT, FDI at rest; baseline 1.1±0.6 mV; paired T test p=0.02
# Description: The aim of the present experiments was to use transcranial magnetic stimulation to test the effects of a single dose of 20 mg of Rimonabant on the excitability of motor cortex and of spinal motor neurons.
# (§1) Neurophysiological examination was performed before and 24 hours after the administration of a single dose of 20 mg of Rimonabant.
# Using transcranial magnetic stimulation (TMS), it was evaluated the thresholds for electromyographic responses in the first dorsal interosseous muscle (FDI) at rest and during voluntary contraction.
# (§2) Nine healthy volunteers (mean age±S.D. 32.1±5.8 years) participated in all experiments. All the subjects gave their written informed consent.
# Magnetic stimulation was performed using a high-power Magstim 200 magnetic stimulator (Magstim Co., Whitland, UK). A figure-of-eight coil with external loop diameters of 9 cm was held over the right motor cortex at the optimum scalp position to elicit motor responses in the contralateral first dorsal interosseous (FDI). The induced current flowed in a postero-anterior direction. Resting motor threshold (RMT) was defined as the minimum stimulus intensity that produced a liminal motor evoked response (about 50 μV in 50% of 10 trials) at rest. The main variables we test is the RMT and MEP amplitude before and 24 hours after the Rimonabant 20 mg. MEP amplitude was obtained at 120% RMT. […]
# healthy volunteers = assay: Tolerability and adverse effects of a single Rimonabant dose in healthy volunteers; format: in vivo, human; settings: single dose 20 mg
# Description: as §1, §2
# Hitherto, three subjects experienced agitation and anxiety (this effect lasted an average of 6 hours) and one suffered for nausea (for 24 hours).
# [2] = as previously described; cited from earlier work
smiles,measurement,setting,value
"Cc1c(C(=O)NN2CCCCC2)nn(-c2ccc(Cl)cc2Cl)c1-c1ccc(Cl)cc1 [Rimonabant, N-(piperidino-1-yl)-5-(4-chlorophenyl)-1-(2,4-dichlorophenyl)-4-methylpyrazole-3-carboxamide]","MEP amplitude (motor system excitability), mean±S.D.",[1],2.1±1.2 mV
same,Average duration of agitation and anxiety,healthy volunteers; healthy volunteers,6 h
same,Duration of nausea,healthy volunteers; healthy volunteers,24 h
same,Effects on vigilance,healthy volunteers; healthy volunteers,moderate
same,Subjects who experienced agitation and anxiety,healthy volunteers; of nine healthy volunteers,three
same,Subjects who suffered nausea,healthy volunteers; of nine healthy volunteers,one
same,Blood-brain barrier penetration,[2],penetrates the blood-brain barrier
